Laboratory results taken from patent publication US6858591B2, “Antibiotic AA 896 analogs” (Wyeth Holdings Corporation, priority 2001, dated 2005).
Converted amounts (≈) assume the structure as drawn.

Legend:
Test in all cases: In vitro MIC, broth dilution
Type in all cases: cell-based
CNS GC 4538 = conditions: CNS GC 4538; read-out: MIC
Outline: (§1)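 Serial antibiotic dilutions (64-0.06 μg/ml) in Mueller-Hinton II were challenged with 5×10^5 CFU/ml bacteria. After an 18 hour ambient-air incubation at 35° C, the lowest concentration inhibiting growth was recorded as MIC, following NCCLS recommendations.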

CNS GC 4537 = conditions: CNS GC 4537; read-out: MIC
Outline: as §1

S. aureus GC 2216 = conditions: Staphylococcus aureus, GC2216; S. aureus GC 2216; read-out: MIC
Outline: as §1

CNS GC 4547 = conditions: CNS GC 4547; read-out: MIC
Outline: as §1

E. faecalis GC 2242 = conditions: Enterococcus faecalis, GC2242; E. faecalis GC 2242; read-out: MIC
Outline: as §1

S. aureus GC 4536 = conditions: Staphylococcus aureus, GC4536; S. aureus GC 4536; read-out: MIC
Outline: as §1

E. faecalis GC 4555 = conditions: Enterococcus faecalis, GC4555; E. faecalis GC 4555; read-out: MIC
Outline: as §1

S. aureus GC 1131 = conditions: Staphylococcus aureus, GC1131; S. aureus GC 1131; read-out: MIC
Outline: as §1

E. faecalis GC 842 = conditions: Enterococcus faecalis, GC842; E. faecalis GC 842; read-out: MIC
Outline: as §1

P. aeruginosa GC 4532 = conditions: Pseudomonas aeruginosa, GC4532; P. aeruginosa GC 4532; read-out: MIC
M. morganii GC 4531 = conditions: Morganella morganii, GC4531; M. morganii GC 4531; read-out: MIC
P. aeruginosa GC 2214 = conditions: Pseudomonas aeruginosa, GC2214; P. aeruginosa GC 2214; read-out: MIC
E. cloacae GC 3783 = conditions: Enterobacter cloacae, GC3783; E. cloacae GC 3783; read-out: MIC
S. marcescens GC 4077 = conditions: Serratia marcescens, GC4077; S. marcescens GC 4077; read-out: MIC
C. albicans GC 3066 = conditions: Candida albicans, GC3066; C. albicans GC 3066; read-out: MIC
E. coli GC 4560 = conditions: Escherichia coli, GC4560; E. coli GC 4560; read-out: MIC
E. coli GC 3226 = conditions: Escherichia coli, GC3226; E. coli GC 3226; read-out: MIC
E. coli GC 4559 = conditions: Escherichia coli, GC4559; E. coli GC 4559; read-out: MIC
K. pneumoniae GC 4534 = conditions: Klebsiella pneumoniae, GC4534; K. pneumoniae GC 4534; read-out: MIC
E. coli GC 2203 = conditions: Escherichia coli, GC2203; E. coli GC 2203; read-out: MIC

| MIC (CNS GC 4538) | MIC (CNS GC 4537) | MIC (S. aureus GC 2216) | MIC (CNS GC 4547) | MIC (E. faecalis GC 2242) | MIC (S. aureus GC 4536) | MIC (E. faecalis GC 4555) | MIC (S. aureus GC 1131) | MIC (E. faecalis GC 842) | MIC (P. aeruginosa GC 4532) | MIC (M. morganii GC 4531) | MIC (P. aeruginosa GC 2214) | MIC (E. cloacae GC 3783) | MIC (S. marcescens GC 4077) | MIC (C. albicans GC 3066) | MIC (E. coli GC 4560) | MIC (E. coli GC 3226) | MIC (E. coli GC 4559) | MIC (K. pneumoniae GC 4534) | MIC (E. coli GC 2203) | SMILES |
| --- | --- | --- | --- | --- | --- | --- | --- | --- | --- | --- | --- | --- | --- | --- | --- | --- | --- | --- | --- | --- |
| > 128 µg/mL | > 128 µg/mL | > 128 µg/mL | > 128 µg/mL | 128 µg/mL (≈ 211 µM) | > 128 µg/mL | 128 µg/mL (≈ 211 µM) | > 128 µg/mL | 128 µg/mL (≈ 211 µM) | 128 µg/mL (≈ 211 µM) | > 128 µg/mL | 128 µg/mL (≈ 211 µM) | > 128 µg/mL | > 128 µg/mL | 128 µg/mL (≈ 211 µM) | 128 µg/mL (≈ 211 µM) | > 128 µg/mL | > 128 µg/mL | > 128 µg/mL | > 128 µg/mL | COc1ccc(Cn2c(=O)ccn([C@@H]3OC([C@H](O)[C@H](NCCCNC(=O)[C@@H](N)CC(C)C)C(=O)O)[C@@H](O)[C@H]3O)c2=O)cc1 (stereo partly drawn) [Example 53, (2S,3R)-2-[(3-{[(2S)-2-Amino-4-methylpentanoyl]amino}propyl)amino]-3-[(3S,4R,5R)-3,4-dihydroxy-5-(3-(4-methoxybenzyl)-2,4-dioxo-3,4-dihydro-1(2H)-pyrimidinyl)tetrahydro-2-furanyl]-3-hydroxypropanoic acid] |
| > 128 µg/mL | > 128 µg/mL | > 128 µg/mL | > 128 µg/mL | 128 µg/mL (≈ 193 µM) | > 128 µg/mL | > 128 µg/mL | > 128 µg/mL | 128 µg/mL (≈ 193 µM) | > 128 µg/mL | 128 µg/mL (≈ 193 µM) | 128 µg/mL (≈ 193 µM) | > 128 µg/mL | > 128 µg/mL | > 128 µg/mL | 128 µg/mL (≈ 193 µM) | > 128 µg/mL | > 128 µg/mL | > 128 µg/mL | > 128 µg/mL | COc1ccc(Cn2c(=O)ccn([C@@H]3OC([C@H](O)[C@H](NCCCNC(=O)[C@@H](N)CC(C)C)C(=O)OC(C)(C)C)[C@@H](O)[C@H]3O)c2=O)cc1 (stereo partly drawn) [Example 54, tert-Butyl (2S,3R)-2-[(3-{[(2S)-2-amino-4-methylpentanoyl]amino}propyl)amino]-3-[(3S,4R,5R)-3,4-dihydroxy-5-(3-(4-methoxybenzyl)-2,4-dioxo-3,4-dihydro-1(2H)-pyrimidinyl)tetrahydro-2-furanyl]-3-hydroxypropanoate] |
| > 128 µg/mL | > 128 µg/mL | > 128 µg/mL | > 128 µg/mL | 128 µg/mL (≈ 206 µM) | > 128 µg/mL | 128 µg/mL (≈ 206 µM) | > 128 µg/mL | 128 µg/mL (≈ 206 µM) | 128 µg/mL (≈ 206 µM) | 128 µg/mL (≈ 206 µM) | 128 µg/mL (≈ 206 µM) | 128 µg/mL (≈ 206 µM) | 128 µg/mL (≈ 206 µM) | 128 µg/mL (≈ 206 µM) | 128 µg/mL (≈ 206 µM) | 128 µg/mL (≈ 206 µM) | > 128 µg/mL | 128 µg/mL (≈ 206 µM) | 128 µg/mL (≈ 206 µM) | CC(C)C[C@H](NC(=O)OCc1ccccc1)C(=O)NCCCN[C@H](C(=O)O)[C@@H](O)C1O[C@@H](n2ccc(=O)[nH]c2=O)[C@H](O)[C@@H]1O (stereo partly drawn) [Example 55, (5S,12S)-12-[(R)-[(3S,4R,5R)-5-(2,4-Dioxo-3,4-dihydro-1(2H)-pyrimidinyl)-3,4-dihydroxy-tetrahydro-2-furanyl](hydroxy)methyl]-5-isobutyl-3,6-dioxo-1-phenyl-2-oxa-4,7,11-triazatridecan-13-oic acid] |

| SMILES | MIC (CNS GC 4538) | MIC (CNS GC 4537) | MIC (S. aureus GC 2216) | MIC (CNS GC 4547) | MIC (E. faecalis GC 2242) | MIC (S. aureus GC 4536) | MIC (E. faecalis GC 4555) | MIC (S. aureus GC 1131) | MIC (E. faecalis GC 842) | MIC (P. aeruginosa GC 4532) | MIC (M. morganii GC 4531) | MIC (P. aeruginosa GC 2214) | MIC (E. cloacae GC 3783) | MIC (S. marcescens GC 4077) | MIC (C. albicans GC 3066) | MIC (E. coli GC 4560) | MIC (E. coli GC 3226) | MIC (E. coli GC 4559) | MIC (K. pneumoniae GC 4534) | MIC (E. coli GC 2203) |
| --- | --- | --- | --- | --- | --- | --- | --- | --- | --- | --- | --- | --- | --- | --- | --- | --- | --- | --- | --- | --- |
| COc1ccc(Cn2c(=O)ccn([C@@H]3OC([C@H](O)[C@H](NCCCNC(=O)[C@@H](CC(C)C)NC(=O)OCc4ccccc4)C(=O)OC(C)(C)C)[C@@H](O[Si](C)(C)C(C)(C)C)[C@H]3O[Si](C)(C)C(C)(C)C)c2=O)cc1 (stereo partly drawn) [Example 56, tert-Butyl (5R,12S)-12-[(R)-[(3R,4R,5R)-3,4-bis{[tert-butyl(dimethyl)silyl]oxy}-5-(3-(4-methoxybenzyl)-2,4-dioxo-3,4-dihydro-1(2H)-pyrimidinyl)tetrahydro-2-furanyl](hydroxy)methyl]-5-isobutyl-3,6-dioxo-1-phenyl-2-oxa-4,7,11-triazatridecan-13-oate] | > 128 µg/mL | > 128 µg/mL | > 128 µg/mL | > 128 µg/mL | 128 µg/mL (≈ 125 µM) | > 128 µg/mL | > 128 µg/mL | > 128 µg/mL | > 128 µg/mL | 128 µg/mL (≈ 125 µM) | 128 µg/mL (≈ 125 µM) | 128 µg/mL (≈ 125 µM) | > 128 µg/mL | > 128 µg/mL | > 128 µg/mL | > 128 µg/mL | > 128 µg/mL | > 128 µg/mL | > 128 µg/mL | > 128 µg/mL |
| COc1ccc(Cn2c(=O)ccn([C@@H]3OC([C@H](O)[C@H](NCCCNC(=O)[C@H](N)CC(C)C)C(=O)OC(C)(C)C)[C@@H](O[Si](C)(C)C(C)(C)C)[C@H]3O[Si](C)(C)C(C)(C)C)c2=O)cc1 (stereo partly shown) [Example 57] | 4 µg/mL (≈ 4.48 µM) | 4 µg/mL (≈ 4.48 µM) | 32 µg/mL (≈ 35.9 µM) | 64 µg/mL (≈ 71.7 µM) | 4 µg/mL (≈ 4.48 µM) | 8 µg/mL (≈ 8.97 µM) | 4 µg/mL (≈ 4.48 µM) | 64 µg/mL (≈ 71.7 µM) | 8 µg/mL (≈ 8.97 µM) | 128 µg/mL (≈ 143 µM) | 128 µg/mL (≈ 143 µM) | 128 µg/mL (≈ 143 µM) | 128 µg/mL (≈ 143 µM) | 128 µg/mL (≈ 143 µM) | 128 µg/mL (≈ 143 µM) | 128 µg/mL (≈ 143 µM) | > 128 µg/mL | > 128 µg/mL | > 128 µg/mL | > 128 µg/mL |
